Common to all, as to assay type: in vivo
Assay [1] concerns Gm chloroplastic ALT-3-01 soybean plants. Briefly: Glyphosate tolerance of soybean plants (herbicide damage rate). The note with it: 840 g ae/ha, 1-fold field concentration; 14 DAT. The text has this:
(§1) The herbicide tolerance effects of Gm cytoplasmic ALT-1-01 soybean plants, Gm chloroplastic ALT-1-01 soybean plants, Gm cytoplasmic ALT-2-01 soybean plants, Gm chloroplastic ALT-2-01 soybean plants, Gm cytoplasmic ALT-3-01 soybean plants, Gm chloroplastic ALT-3-01 soybean plants and wild-type soybean plants on glyphosate were detected (at seedling stage), respectively.
(§2) 2 strains from Gm cytoplasmic ALT-1-01 soybean plants, Gm chloroplastic ALT-1-01 soybean plants, Gm cytoplasmic ALT-2-01 soybean plants, Gm chloroplastic ALT-2-01 soybean plants, Gm cytoplasmic ALT-3-01 soybean plants, Gm chloroplastic ALT-3-01 soybean plants and wild-type soybean plants were respectively taken each, and 10-15 plants were selected from each strain and tested. The plants above were sprayed with glyphosate (840 g ae/ha, 1-fold field concentration) and a blank solvent (water). The herbicide damage rate was measured for each plant according to the phytotoxicity symptoms 14 days after spraying (14 DAT): herbicide damage rate (%)=Σ(number of damaged plants at the same level×level number)/(total number of plants×highest level).

The subject of assay [2] is Gm cytoplasmic ALT-2-01 soybean plants. The assay is described as above. The settings on record: 840 g ae/ha, 1-fold field concentration; 14 DAT.
Excerpt: as §1, §2

Assay [3] concerns Gm chloroplastic ALT-2-01 soybean plants. The description is as above. The settings on record: 840 g ae/ha, 1-fold field concentration; 14 DAT.
Excerpt: as §1, §2

Assay [4] concerns wild-type soybean plants (CK1). The description is as above. The note with it: 840 g ae/ha, 1-fold field concentration; 14 DAT.
Excerpt: as §1, §2

Assay [5] deals with Gm cytoplasmic ALT-3-01 soybean plants. The assay is described as above. The note with it: 840 g ae/ha, 1-fold field concentration; 14 DAT.
Excerpt: as §1, §2

Assay [6] relates to Gm chloroplastic ALT-1-01 soybean plants. The description is as above. The note with it: 840 g ae/ha, 1-fold field concentration; 14 DAT.
Excerpt: as §1, §2

Assay [7] deals with Gm cytoplasmic ALT-1-01 soybean plants. The assay is described as above. The settings on record: 840 g ae/ha, 1-fold field concentration; 14 DAT.
Excerpt: as §1, §2

The subject of assay [8] is At chloroplastic ALT-3-01 T1 plants. Briefly: Herbicide tolerance of Arabidopsis thaliana T1 plants (spray, resistance classes counted). The settings on record: number of plants 14 days after spraying, Total 32.
Excerpt: (§3) T1 transformants were initially selected from the background of untransformed seeds using a glufosinate selection scheme. About 40000 T1 seeds were screened, and 380 T1 positive transformants (PAT gene) were identified with a transformation efficiency of about 0.95%. The plants that were transformed with the recombinant expression vector DBN100632 were Arabidopsis thaliana plants having an ALT-1-01 nucleotide sequence located in the cytoplasm introduced (At cytoplasmic ALT-1-01), and the plants that were transformed with the recombinant expression vector DBN100631 were Arabidopsis thaliana plants having an ALT-1-01 nucleotide sequence located in the chloroplast introduced (At chloroplastic ALT-1-01); the plants that were transformed with the recombinant expression vector DBN100634 were Arabidopsis thaliana plants having an ALT-2-01 nucleotide sequence located in the cytoplasm introduced (At cytoplasmic ALT-2-01), and the plants that were transformed with the recombinant expression vector DBN100633 were Arabidopsis thaliana plants having an ALT-2-01 nucleotide sequence located in the chloroplast introduced (At chloroplastic ALT-2-01); and the plants that were transformed with the recombinant expression vector DBN100636 were Arabidopsis thaliana plants having an ALT-3-01 nucleotide sequence located in the cytoplasm introduced (At cytoplasmic ALT-3-01), and the plants that were transformed with the recombinant expression vector DBN100635 were Arabidopsis thaliana plants having an ALT-3-01 nucleotide sequence located in the chloroplast introduced (At chloroplastic ALT-3-01). The herbicide tolerance effects of At cytoplasmic ALT-1-01 T1 plants, At chloroplastic ALT-1-01 T1 plants, At cytoplasmic ALT-2-01 T1 plants, At chloroplastic ALT-2-01 T1 plants, At cytoplasmic ALT-3-01 T1 plants, At chloroplastic ALT-3-01 T1 plants and wild-type Arabidopsis thaliana plants on halosulfuron-methyl were detected (14 days after sowing), respectively.
(§4) […] Plants were counted for the resistance situations 14 days after spraying: those having a consistent growth status with the blank solvent (water) group after 14 days were classified as highly resistant plants, those having a bolting height less than ½ of that of the blank solvent (water) group after 14 days were classified as moderately resistant plants, those still not capable of bolting after 14 days were classified as poorly resistant plants, and those dead after 14 days were classified as non-resistant plants. Since each Arabidopsis thaliana T1 plant was an independent transformation event, a significant difference in individual T1 responses could be expected at a given dose.
as §4, with “situation” for “situations”

Assay [9] has as its system At cytoplasmic ALT-3-01 T1 plants. Described as above. The note with it: number of plants 14 days after spraying, Total 30.
Excerpt: as §3, §4
as §4, with “situation” for “situations”

Assay [10] deals with At cytoplasmic ALT-2-01 T1 plants. Described as above. The settings on record: number of plants 14 days after spraying.
Excerpt: as §3, §4
as §4, with “situation” for “situations”

The test system of assay [11] is At chloroplastic ALT-1-01 T1 plants. The description is as above. The note with it: number of plants 14 days after spraying.
Excerpt: as §3, §4
as §4, with “situation” for “situations”

Assay [12] relates to At chloroplastic ALT-2-01 T1 plants. The description is as above. The note with it: number of plants 14 days after spraying.
Excerpt: as §3, §4
as §4, with “situation” for “situations”

The subject of assay [13] is At cytoplasmic ALT-1-01 T1 plants. Described as above. The note with it: number of plants 14 days after spraying, Total 29.
Excerpt: as §3, §4
as §4, with “situation” for “situations”

The test system of assay [14] is all the transformed Arabidopsis thaliana T1 plants (ALT-1, ALT-2 and ALT-3). Briefly: Herbicide tolerance of Arabidopsis thaliana T1 plants. The note with it: 1-fold field concentration; summary of Table 2. From the text:
(§5) At cytoplasmic ALT-1-01 T1 plants, At chloroplastic ALT-1-01 T1 plants, At cytoplasmic ALT-2-01 T1 plants, At chloroplastic ALT-2-01 T1 plants, At cytoplasmic ALT-3-01 T1 plants, At chloroplastic ALT-3-01 T1 plants and wild-type Arabidopsis thaliana plants were sprayed with halosulfuron-methyl (34 g ai/ha, 1-fold field concentration) and a blank solvent (water), respectively. Plants were counted for the resistance situations 14 days after spraying: those having a consistent growth status with the blank solvent (water) group after 14 days were classified as highly resistant plants, those having a bolting height less than ½ of that of the blank solvent (water) group after 14 days were classified as moderately resistant plants, those still not capable of bolting after 14 days were classified as poorly resistant plants, and those dead after 14 days were classified as non-resistant plants. Since each Arabidopsis thaliana T1 plant was an independent transformation event, a significant difference in individual T1 responses could be expected at a given dose.
At cytoplasmic ALT-1-01 T1 plants, At chloroplastic ALT-1-01 T1 plants, At cytoplasmic ALT-2-01 T1 plants, At chloroplastic ALT-2-01 T1 plants, At cytoplasmic ALT-3-01 T1 plants, At chloroplastic ALT-3-01 T1 plants and wild-type Arabidopsis thaliana plants in Example 4 were sprayed with iodosulfuron-methyl (10 g ai/ha, 1-fold field concentration), mesosulfuron (14 g ai/ha, 1-fold field concentration) and oxasulfuron (60 g ai/ha, 1-fold field concentration), respectively, in addition to halosulfuron-methyl (34 g ai/ha, 1-fold field concentration) and the blank solvent (water). Plants were counted for the resistance situation 14 days after spraying: those having a consistent growth status with the blank solvent (water) group after 14 days were classified as highly resistant plants, those having a bolting height less than ½ of that of the blank solvent (water) group after 14 days were classified as moderately resistant plants, those still not capable of bolting after 14 days were classified as poorly resistant plants, and those dead after 14 days were classified as non-resistant plants. Since each Arabidopsis thaliana T1 plant was an independent transformation event, a significant difference in individual T1 responses could be expected at a given dose.

For assay [15], the system named is wild-type Arabidopsis thaliana plants. The experiment in a line: Herbicide tolerance of Arabidopsis thaliana plants (spray, resistance classes counted). The note with it: 10 g ai/ha (1x Iod.); number of plants 14 days after spraying; Total 29.
Excerpt: as §3, §5
At cytoplasmic ALT-1-01 T1 plants, At chloroplastic ALT-1-01 T1 plants, At cytoplasmic ALT-2-01 T1 plants, At chloroplastic ALT-2-01 T1 plants, At cytoplasmic ALT-3-01 T1 plants, At chloroplastic ALT-3-01 T1 plants and wild-type Arabidopsis thaliana plants in Example 4 were sprayed with iodosulfuron-methyl (10 g ai/ha, 1-fold field concentration), mesosulfuron (14 g ai/ha, 1-fold field concentration) and oxasulfuron (60 g ai/ha, 1-fold field concentration), respectively, in addition to halosulfuron-methyl (34 g ai/ha, 1-fold field concentration) and the blank solvent (water). […]

The mark [16] stands for this setting: 14 g ai/ha (1x Mes.), genotype cell prints only "At".

With `O=C(O)CNCP(=O)(O)O` [glyphosate, N-phosphonomethylglycine], the “glyphosate herbicide damage rate” value in assay [1] is about 0%; in assay [2], about 0%; in [3], about 0%; in assay [4], “not less than 90%”; in [5] it was about 0%; in [6] it was about 0%. Also, the “glyphosate herbicide damage rate” value in [7] is given as about 0%.
`COC(=O)c1ccc(I)cc1S(=O)(=O)NC(=O)Nc1nc(C)nc(OC)n1` [iodosulfuron-methyl]: the Highly resistant is given as 0 in assay [8] (10 g ai/ha (1x Iod.)); 0 in assay [9] (10 g ai/ha (1x Iod.)); 0 in assay [10] (10 g ai/ha (1x Iod.), Total 30); 0 in assay [11] (10 g ai/ha (1x Iod.), Total 30); 0 in assay [12] (10 g ai/ha (1x Iod.), Total 31); 0 in assay [13] (10 g ai/ha (1x Iod.)). The Highly resistant in assay [15] came out at 0. The Moderately resistant in assay [8] (10 g ai/ha (1x Iod.)) amounted to 0; in assay [9] (10 g ai/ha (1x Iod.)) it was 0; in assay [10] (10 g ai/ha (1x Iod.), Total 30), 0; in [11] (10 g ai/ha (1x Iod.), Total 30), 0; in assay [12] (10 g ai/ha (1x Iod.), Total 31) it was 0; in assay [13] (10 g ai/ha (1x Iod.)) it was 0. The compound further registered a Moderately resistant in assay [15] of 0. Further, the Non-resistant in [8] (10 g ai/ha (1x Iod.)) came out at 32; in assay [9] (10 g ai/ha (1x Iod.)) it was 30; in [10] (10 g ai/ha (1x Iod.), Total 30), 30; in assay [11] (10 g ai/ha (1x Iod.), Total 30) it was 30; in [12] (10 g ai/ha (1x Iod.), Total 31), 31; in assay [13] (10 g ai/ha (1x Iod.)), 29. Moreover, the Non-resistant in [15] stood at 29. The Poorly resistant in assay [8] (10 g ai/ha (1x Iod.)) was determined as 0; in assay [9] (10 g ai/ha (1x Iod.)), 0; in assay [10] (10 g ai/ha (1x Iod.), Total 30) it was 0; in [11] (10 g ai/ha (1x Iod.), Total 30), 0; in [12] (10 g ai/ha (1x Iod.), Total 31) it was 0; in assay [13] (10 g ai/ha (1x Iod.)), 0. In assay [15], this compound showed a Poorly resistant of 0. Also, the “ability of the transformed plants to degrade the herbicide” value (from here on “ability of the transformed plants”) in assay [14] was “did not exhibit the ability to degrade”. The “degree of damage, transformed versus wild-type plants” value in assay [14] was “no difference”.
Turning to `COC(=O)c1ccc(CNS(C)(=O)=O)cc1S(=O)(=O)NC(=O)Nc1nc(OC)cc(OC)n1` [mesosulfuron], the Highly resistant in assay [8] (setting [16]) is recorded as 0; in [9] (14 g ai/ha (1x Mes.)), 0; in assay [10] (14 g ai/ha (1x Mes.), Total 32), 0; in [11] (14 g ai/ha (1x Mes.), Total 32) it was 0; in assay [12] (14 g ai/ha (1x Mes.), Total 30), 0; in assay [13] (14 g ai/ha (1x Mes.)) it was 0. In addition, the Moderately resistant in [8] (setting [16]) came out at 0; in [9] (14 g ai/ha (1x Mes.)), 0; in assay [10] (14 g ai/ha (1x Mes.), Total 32), 0; in assay [11] (14 g ai/ha (1x Mes.), Total 32) it was 0; in [12] (14 g ai/ha (1x Mes.), Total 30), 0; in assay [13] (14 g ai/ha (1x Mes.)), 0. Besides, the Non-resistant in assay [8] (setting [16]) was determined as 32; in assay [9] (14 g ai/ha (1x Mes.)), 30; in assay [10] (14 g ai/ha (1x Mes.), Total 32) it was 32; in assay [11] (14 g ai/ha (1x Mes.), Total 32), 32; in [12] (14 g ai/ha (1x Mes.), Total 30), 30; in assay [13] (14 g ai/ha (1x Mes.)), 29. Besides, the Poorly resistant was 0 in [8] (setting [16]); 0 in assay [9] (14 g ai/ha (1x Mes.)); 0 in [10] (14 g ai/ha (1x Mes.), Total 32); 0 in [11] (14 g ai/ha (1x Mes.), Total 32); 0 in [12] (14 g ai/ha (1x Mes.), Total 30); 0 in assay [13] (14 g ai/ha (1x Mes.)). For the same compound, in [14], the “ability of the transformed plants” value was “did not exhibit the ability to degrade”. For the same compound, the “degree of damage, transformed versus wild-type plants” value in assay [14] is given as “no difference”.
Consider `Cc1cc(C)nc(NC(=O)NS(=O)(=O)c2ccccc2C(=O)OC2COC2)n1` [oxasulfuron], for which, in assay [14], the “ability of the transformed plants” value was “did not exhibit the ability to degrade” and the “degree of damage, transformed versus wild-type plants” value was “no difference”.
